What was measured:
Format in all cases: in vivo, rat
[1] = system: cerebral ischemic tissue in MCAO rats; experiment: Energy metabolism indexes in cerebral ischemic tissue, MCAO; settings: for increase of energy index relative to the model group: 24 hours of cerebral ischemia; for ADP / AMP / ATP / CrP / Energy Load: cerebral ischemic tissue, MCAO rats
Source text: The obtained r values were respectively rATP=0.9897, rADP=0.9896, rAMP=0.9893, rCrP=0.9981. The recovery rates of 4 kinds of standard materials were respectively (86.6±5.6) %, (94.45±7.5) %, (83.4±6.1) %, (78.69±7.3) %.

[2] = system: MCAO rats; experiment: Cerebral edema and Evans blue / fluorescein sodium leakage, MCAO; settings: 24 hours
Description: After surgery, a mixture solution of EB/NF (0.5%, dissolved in normal saline) of 0.25 ml was immediately (immediately after administration in the administration groups) injected via tail vein in the animals. 24 hours later, a normal saline was perfused in the hearts of the rats to get rid of unbound dye. The rats were decollated and the brain tissues were promptly removed and separated into ischemic hemisphere and non-ischemic hemisphere. The two hemispheres were weighted respectively and homogenated with 7.5% (w/v) trichloroacetic acid (TCA). The homogenate was divided into two parts, in which 1 ml homogenate was adjusted with 52 μl NaOH (5N) to reach a neutral pH value, and 200 μl of it was taken out to determine the fluorescence intensity (excitation 485 nm, emission 535 nm), the NF thereof was determined by using a standard curve made with NF solutions of concentration series. Another part of homogenate was centrifuged for 20 min at 12000 g and 4° C. 200 μl supernatant was taken out to a microplate and its absorbance was determined at 620 nm, and EB thereof was determined by using a standard curve made with EB solutions of concentration series. The results were expressed in form of μg EB (or NF)/g brain wet weight. Percentage of brain edema was expressed as: (brain weight in ischemic hemisphere−brain weight in non-ischemic hemisphere)/brain weight in non-ischemic hemisphere×100%.

[3] = system: NO and TNF-α; experiment: NO and TNF-α contents in MCAO rats' serum; settings: 24 hours after ischemia
[4] = system: TNF-α, IL-1β, ICAM-1, VCAM-1, iNOS, AQP-4; experiment: Expression of TNF-α, IL-1β, ICAM-1, VCAM-1, iNOS and AQP-4 in ischemic cerebral tissue (FIG. 2)
Source text: B is a statistic chart that quantifies the expression of TNF-α, IL-1β, ICAM-1, VCAM-1, iNOS and AQP-4 with β-actin as internal standard.
With β-actin as internal standard, the expressions of TNF-α, IL-1β, ICAM-1, VCAM-1, iNOS, AQP-4 were quantified, and the inhibition effects of pinocembrin racemate on the above proteins were seen intuitively.

[5] = 24 h after ischemia, 3 mg/kg, 10 mg/kg, 30 mg/kg in early stage of ischemia, FIG. 2

## O=C1CC(c2ccccc2)Oc2cc(O)cc(O)c21 (racemic) [Pinocembrin racemate, pinocembrin racemate]
[1]; first of two values printed for groups 3, 10, 30 mg/kg
  increase of energy index relative to the model group: 34.6%
[1]; second of two values printed for groups 3, 10, 30 mg/kg
  increase of energy index relative to the model group: 45.8%
[1]; 3 mg/kg
  ADP: 0.31 ± 0.04 µmol/g
  AMP: 0.02 ± 0.00 µmol/g
  ATP: 1.18 ± 0.18 µmol/g
  CrP: 3.98 ± 1.23 µmol/g
  Energy Load: 0.73 ± 0.23
[1]; 10 mg/kg
  ADP: 0.35 ± 0.06 µmol/g
  AMP: 0.02 ± 0.00 µmol/g
  ATP: 1.62 ± 0.21 µmol/g
  CrP: 4.12 ± 1.25 µmol/g
  Energy Load: 0.88 ± 0.23
[1]; 30 mg/kg
  ADP: 0.38 ± 0.05 µmol/g
  AMP: 0.02 ± 0.00 µmol/g
  ATP: 1.97 ± 0.58 µmol/g
  CrP: 4.43 ± 1.34 µmol/g
  Energy Load: 0.96 ± 0.29
[2]; 3 mg/kg iv
  EB leakage (μg/g tissue): 6.16 ± 0.4 μg/g tissue
  NF leakage (μg/g tissue): 1.48 ± 0.08 μg/g tissue
[2]; 3 mg/kg iv, 3 mg/kg
  Percentage of brain edema volume (%): 5.5±1.7%
[2]; 10 mg/kg iv
  EB leakage (μg/g tissue): 5.03 ± 0.8 μg/g tissue
  NF leakage (μg/g tissue): 1.39 ± 0.20 μg/g tissue
[2]; 10 mg/kg iv, 10 mg/kg
  Percentage of brain edema volume (%): 4.1±1.5%
[2]; 30 mg/kg iv
  EB leakage (μg/g tissue): 4.39 ± 0.4 μg/g tissue
  NF leakage (μg/g tissue): 1.30 ± 0.15 μg/g tissue
[2]; 30 mg/kg iv, 30 mg/kg
  Percentage of brain edema volume (%): 3.2±2.1%
[3]; 3 mg/kg
  NO: 109.80 ± 9.38 µmol/L
  TNF-α: 1163.09 ± 51.12 pg/mL
[3]; 10 mg/kg
  NO: 107.11 ± 9.13 µmol/L
  TNF-α: 1104.83 ± 48.43 pg/mL
[3]; 30 mg/kg
  NO: 104.75 ± 5.03 µmol/L
  TNF-α: 1057.48 ± 48.48 pg/mL
[4]; [5]
  expression of cytokines TNF-α and IL-1β in cerebral ischemia tissue: inhibited the expression of TNF-α, IL-1β in some extents
  expression of iNOS and AQP-4 protein: inhibited the expression of iNOS and AQP-4 protein in some extents
[4]; doses of 10 mg/kg and 30 mg/kg
  inhibition of expression of TNF-α, IL-1β, ICAM-1, VCAM-1, iNOS, AQP-4 quantified with β-actin as internal standard: showed better results

Source: patent publication US20110245334A1, “USE OF RACEMATES OF PINOCEMBRIN IN PREPARING MEDICAMENTS FOR TREATING STROKE” (CSPC Zhonggi Pharmaceutical Technology (Shijiazhuang) Co. …, priority 2008, published 2011)
